This is an account of results in patent US10426841B2, “Combination of drugs with protein-binding prodrugs” (VERGELL MEDICAL S.A., priority 2010, dated 2019).

Data set [1] deals with human ovarian cancer xenografts (A2780). Description: Antitumor efficacy and tolerability in the ovarian carcinoma A2780 xenograft model. Conditions: for toxic death: 8 mice per group; for RTV day 30 (relative tumor volume): * significant to Doxorubicin; for antitumor efficacy (in words): doxorubicin 2×8 mg/kg up to day 30. On the procedure:
In order to evaluate the in vivo antitumor efficacy of a combination of doxorubicin with DOXO-EMCH in tumor-bearing mice, a direct comparison was made with a group treated with doxorubicin (2×8 mg/kg body weight) or DOXO-EMCH (3×24 mg/kg body weight doxorubicin equivalents) at their respective MTDs. For the combination, a lower dose of doxorubicin (3×4 mg/kg body weight) was combined with a lower dose of DOXO-EMCH (3×12 mg/kg body weight doxorubicin equivalents) wherein the DOXO-EMCH was administered 6 h prior to doxorubicin on the respective days of administration (cf. Table 1).
Experimental Procedure. […] For in vivo testing, female NMRI: nu/nu mice (Taconic, Denmark) were used. The mice were held in individually ventilaged cages (IVC) under sterile and standardized environmental conditions (25±2° C. room temperature, 50±10% relative humidity, 12 hour light-dark-rhythm). They received autoclaved food and bedding (ssniff, Soest, Germany) and acidified (pH 4.0) drinking water ad libitum. A2780 tumor fragments were transplanted subcutaneously (s.c.) into the left flank region of anaesthetized mice (40 mg/kg i.p. Radenarkon, Asta Medica, Frankfurt, Germany) on day 0. Mice were randomly distributed to the experimental groups (8 mice per group). When the tumors were grown to a palpable size, treatment was initiated. Mice were treated intravenously (i.v.) with either glucose phosphate buffer (10 mM sodium phosphate, 5% D-(+)-glucose, pH 5.8), doxorubicin (2×8 mg/kg body weight), or DOXO-EMCH (3×24 mg/kg body weight doxorubicin equivalents), or a combination of DOXO-EMCH (3×12 mg/kg body weight doxorubicin equivalents) and doxorubicin (3×4 mg/kg body weight) with a 6 hour interval on the day of administration. DOXO-EMCH was dissolved in 10 mM sodium phosphate, 5% D-(+)-glucose, pH 5.8. The compounds were injected intravenously at weekly intervals on days 6 and 13 and on days 6, 13 and 20 for the remaining compounds. The injection volume was 0.2 ml/20 g body weight. Tumor size was measured twice weekly with a caliper-like instrument in two dimensions. Individual tumor volumes (V) were calculated by the formula V=(length×[width]2)/2 and related to the values on the first day of treatment (relative tumor volume, RTV). Statistical analysis was performed with the U-test (Mann and Whitney) with p<0.05. The body weight of mice was determined every 3 to 4 days.

A short description of data set [2]: Maximum tolerated dose in nude mice. The format is in vivo. The settings on record: 2×12 mg/kg body weight.
The mark [3] stands for this setting: i.v., doxorubicin 8 mg/kg days 6, 13, DOXO-EMCH 24 mg/kg days 6, 13, 20, combination 4 + 12 mg/kg days 6, 13, 20.
Setting [4] is: DOXO-EMCH 3×24 mg/kg, combination DOXO-EMCH 3×12 + doxorubicin 3×4 mg/kg.

Turning to `COc1cccc2c1C(=O)c1c(O)c3c(c(O)c1C2=O)C[C@@](O)(C(=O)CO)C[C@@H]3O[C@H]1C[C@H](N)[C@H](O)[C@H](C)O1` [Doxorubicin, doxorubicin, reference compound], in data set [1] (setting [3]), the toxic death came to 0, the “RTV day 20 (relative tumor volume)” value was found to be 7.4 and the “RTV day 30 (relative tumor volume)” value worked out at 23.9. In data set [1] (setting [4]), the “antitumor efficacy (in words)” value was “moderate antitumor efficacy”. Further, the “toxicity at doses higher than MTD” value in data set [2] is “unacceptable toxicity and mortality”.

`COc1cccc2c1C(=O)c1c(O)c3c(c(O)c1C2=O)CC(O)(C(CO)=NNC(=O)CCCCCN1C(=O)C=CC1=O)CC3OC1CC(N)C(O)C(C)O1` (stereo not drawn) [DOXO-EMCH, 6-maleimidocaproyl(hydrazone) derivative of doxorubicin]: in data set [1] (setting [3]), the toxic death is listed as 0, the “RTV day 20 (relative tumor volume)” value was 0.2 and the “RTV day 30 (relative tumor volume)” value is 0.1*. Also, the body weight loss entry in data set [1] (DOXO-EMCH 3×24 mg/kg, after day 37, some animals died or were killed) is recorded as “over 30%”. Besides, in data set [1] (setting [4]), the “duration of tumor remissions” value was “up to 37 days” and the “antitumor efficacy (in words)” value is recorded as “pronounced antitumor effect”. In data set [1] (day of value in brackets in the cell, i.v., doxorubicin 8 mg/kg days 6, 13, DOXO-EMCH 24 mg/kg days 6, 13, 20, combination 4 + 12 mg/kg days 6, 13, 20), the “BWC [%] (body weight change)” value is listed as −31 (d37) %.
